The values that follow are results of earlier work, collected in patent publication US6586615B1, “α-aminoboronic acids prepared by novel synthetic methods” (Bristol-Myers Squibb Company, priority 2001, dated 2003).

The series concerns the target chymotrypsin (Bos taurus, UniProt P00766). The settings on record: inhibits chymotrypsin; background, Matteson J. Am. Chem. Soc. 103, 5241-5242 (1981).

On to `CC(=O)NC(Cc1ccccc1)B(O)O` (stereo not shown) [Ac-boroPhe-OH], for which the Ki was 2100 nM.

In general, Ki refers to a dissociation constant, usually derived from enzyme kinetics or from competition with a known ligand.
